In patent US20220402901A1 (Bial - R&D Investments, S.A., priority 2019, published 2022):
Converted amounts (≈) assume the structure as drawn.

Experiments:
[1] = molecular target: T1, Human acid ceramidase (hACR) (Homo sapiens, UniProt Q13510); assay: Acid ceramidase biochemical fluorescent assay (cell lysates overexpressing acid ceramidase, substrate Rbm14-12); conditions: 10 μg lysate protein, 1 hr preincubation at RT, pH 4.5, Rbm14-12 6.3 μM
T1 construct: expressed in transfected cells; lysates of cells overexpressing acid ceramidase
T1 sequence (Q13510 22-395): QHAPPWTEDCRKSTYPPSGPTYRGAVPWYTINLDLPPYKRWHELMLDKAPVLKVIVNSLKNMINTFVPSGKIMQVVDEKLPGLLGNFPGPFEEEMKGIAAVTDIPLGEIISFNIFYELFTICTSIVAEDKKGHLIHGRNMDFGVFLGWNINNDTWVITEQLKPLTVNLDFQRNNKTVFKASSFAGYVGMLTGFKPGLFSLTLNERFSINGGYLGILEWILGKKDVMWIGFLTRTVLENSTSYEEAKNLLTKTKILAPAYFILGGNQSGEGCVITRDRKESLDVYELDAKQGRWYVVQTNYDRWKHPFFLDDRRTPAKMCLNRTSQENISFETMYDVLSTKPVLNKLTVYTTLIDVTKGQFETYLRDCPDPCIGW
Experimental: The ability of exemplary compounds to inhibit acid ceramidase was measured.
Cell lysates overexpressing acid ceramidase were used as the enzyme source for compound potency determination in a biochemical fluorescent assay. Briefly, compounds were preincubated with 10 μg protein of cell lysates in a dose-response manner for 1 hr at RT in the assay buffer containing 25 mM NaAC and 100 mM NaCl, pH 4.5. The reaction was initiated by the addition of substrate Rbm14-12 at a final concentration of 6.3 μM. The reaction was run at RT for 1 hr before it was stopped by the addition of the stopping buffer containing 20% methanol (v/v), 1 mg/ml NaIO4, 0.1 M glycine, pH 10.6. The samples were incubated with the stopping buffer at RT for 1 hr to allow the fluorescent product to be formed. Finally the plate was read with SpectraMax i3 plate reader (Molecular Devices) at ex360 nm and em446 nm. Data were collected and used to determine the IC50 values of compounds by curve fitting to the four-parameter inhibition equation.
The symbol “A” indicates inhibition of less than 0.2 μM; the symbol “B” indicates inhibition in the range of 0.2 μM up to 1 μM; and the symbol “C” indicates inhibition of greater than 1 μM.

[2] = Compound solubility in water; assay type: physicochemical; conditions: read-out: Solubility in H2O

Structure (SMILES)	IC50 [1] [nM]	solubility [2] [µM]
Cn1c(=O)oc2cc(N3CCN(C(=O)NCCC4CC4)C(C)(C)C3)ccc21 [Example 53, N-(2-Cyclopropylethyl)-2,2-dimethyl-4-(3-methyl-2-oxo-1,3-benzoxazol-6-yl)piperazine-1-carboxamide]	> 1000	20.5 (≈ 7.64 µg/mL)
CCCCCNC(=O)N1CCN(c2ccc3c(c2)oc(=O)n3C)CC1(C)C [Example 54, 2,2-Dimethyl-4-(3-methyl-2-oxo-1,3-benzoxazol-6-yl)-N-pentyl-piperazine-1-carboxamide]	200 to 1000	2.4 (≈ 0.899 µg/mL)
Cn1c(=O)oc2cc(N3CCN(C(=O)NCCOCc4ccccc4)C(C)(C)C3)ccc21 [Example 57, N-(2-Benzyloxyethyl)-2,2-dimethyl-4-(3-methyl-2-oxo-1,3-benzoxazol-6-yl)piperazine-1-carboxamide]	200 to 1000	3.5 (≈ 1.53 µg/mL)
CN(C)CCn1c(=O)oc2cc(N3CCN(C(=O)NCCCCc4ccccc4)C(C)(C)C3)ccc21 [Example 58, 4-[3-[2-(Dimethylamino)ethyl]-2-oxo-1,3-benzoxazol-6-yl]-2,2-dimethyl-N-(4-phenylbutyl)piperazine-1-carboxamide]	< 200	41.8 (≈ 20.6 µg/mL)
CC1CN(c2ccc3c(c2)oc(=O)n3C)CC(C)N1C(=O)NCCCCc1ccccc1 (stereo not shown) [Example 59, 2,6-Dimethyl-4-(3-methyl-2-oxo-1,3-benzoxazol-6-yl)-N-(4-phenylbutyl)piperazine-1-carboxamide]	< 200	0.5 (≈ 0.218 µg/mL)
Cn1c(=O)oc2cc(N3CCN(C(=O)NCCCCc4ccccc4)CC3=O)ccc21 [Example 63, 4-(3-Methyl-2-oxo-1,3-benzoxazol-6-yl)-3-oxo-N-(4-phenylbutyl)piperazine-1-carboxamide]	> 1000	51.4 (≈ 21.7 µg/mL)
Cn1c(=O)oc2cc(N3CCN(C(=O)NCCCCc4ccccc4)C(C)(C)C3=O)ccc21 [Example 64, 2,2-Dimethyl-4-(3-methyl-2-oxo-1,3-benzoxazol-6-yl)-3-oxo-N-(4-phenylbutyl)piperazine-1-carboxamide]	< 200	6.8 (≈ 3.06 µg/mL)
Cn1c(=O)oc2cc(N3CC(C)(C)N(C(=O)NCCCCc4ccccc4)CC3=O)ccc21 [Example 65, 2,2-Dimethyl-4-(3-methyl-2-oxo-1,3-benzoxazol-6-yl)-5-oxo-N-(4-phenylbutyl)piperazine-1-carboxamide]	< 200	18.9 (≈ 8.52 µg/mL)
